Test results published in US8026359B2, “Fungicidal heterocyclic amines” (E.I. du Pont de Nemours and Company, priority 2007, dated 2011).

Assays:
Assay type in all cases: in vivo
Conditions in all cases: 200 ppm; 100 = 100% disease control, 0 = no control relative to controls
Botrytis cinerea = assay: Test F: tomato Botrytis, preventive spray on tomato seedlings
Summary of the method: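 Preventive run-off spray onto tomato seedlings at 200 ppm (equivalent to 500 g/ha) or 40 ppm. Suspensions: compound predissolved in acetone at 3% of final volume, then taken up in acetone/purified water 50/50 containing 250 ppm Trem® 014 surfactant.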

Phytophthora infestans = system: Phytophthora infestans
Plasmopara viticola = assay: Test L: grape downy mildew, spray after inoculation of grape seedlings
Text: General protocol for preparing test suspensions for Tests A-R: The test compounds were first dissolved in acetone in an amount equal to 3% of the final volume and then suspended at the desired concentration (in ppm) in acetone and purified water (50/50 mix) containing 250 ppm of the surfactant Trem® 014 (polyhydric alcohol esters). The resulting test suspensions were then used in tests A-R. In Tests A-M, compounds were sprayed as a 200 ppm test suspension (equivalent to a rate of 500 g/ha) or as a 40 ppm test suspension to the point of runoff on the test plants. In Tests N-R, compounds were sprayed as a 100 g/ha test suspension (equivalent to a rate of 100 ppm) on the test plants at an application volume of 1000 L/ha. Grape seedlings were inoculated with a spore suspension of Plasmopara viticola (the causal agent of grape downy mildew) and incubated in a saturated atmosphere at 20° C. for 24 h. After a short drying period, the test suspension was sprayed to the point of run-off on the grape seedlings and then moved to a growth chamber at 20° C. for 6 days, after which time the test units were placed back into a saturated atmosphere at 20° C. for 24 h. Upon removal, disease ratings were made.

[1] = system: Puccinia recondita f. sp. tritici; assay: Test B: wheat leaf rust, preventive spray on wheat seedlings
Summary of the method: (§1)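 Compounds dissolved in acetone (3% of final volume), then suspended in 50/50 acetone/purified water with 250 ppm Trem® 014 surfactant. Sprayed to run-off on seedlings as a 200 ppm (equivalent to 500 g/ha) or 40 ppm suspension, preventively.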

[2] = system: Colletotrichum orbiculare; assay: Test I: cucumber Colletotrichum anthracnose, preventive spray on cucumber seedlings
Summary of the method: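 Preventive foliar spray to run-off on cucumber seedlings, at 200 ppm (stated as equal to 500 g/ha) or 40 ppm. Test suspensions were made in acetone/water 50/50 containing 250 ppm Trem 014, after first dissolving compound in acetone at 3% of final volume.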

Pythium aphanidermatum = assay: Test M: bluegrass pythium blight, preventive spray on bluegrass seedlings
Text: (§2) General protocol for preparing test suspensions for Tests A-R: The test compounds were first dissolved in acetone in an amount equal to 3% of the final volume and then suspended at the desired concentration (in ppm) in acetone and purified water (50/50 mix) containing 250 ppm of the surfactant Trem® 014 (polyhydric alcohol esters). The resulting test suspensions were then used in tests A-R. In Tests A-M, compounds were sprayed as a 200 ppm test suspension (equivalent to a rate of 500 g/ha) or as a 40 ppm test suspension to the point of runoff on the test plants. In Tests N-R, compounds were sprayed as a 100 g/ha test suspension (equivalent to a rate of 100 ppm) on the test plants at an application volume of 1000 L/ha. The test suspension was sprayed to the point of run-off on bluegrass seedlings.

Fusarium graminearum = assay: whole plant or invertebrate
[3] = system: Erysiphe graminis f. sp. tritici; assay: Test A: wheat powdery mildew, preventive spray on wheat seedlings
Summary of the method: as §1

Rhizoctonia oryzae = assay: Test J: turf brown patch, preventive spray on creeping bent grass seedlings
Text: as §2, with “creeping bent grass” for “bluegrass”

Septoria nodorum = assay: Test C: wheat glume blotch, preventive spray on wheat seedlings
Summary of the method: as §1

Row | SMILES | Test F disease control rating (Botrytis cinerea) [%] | Test K disease control rating (Phytophthora infestans) [%] | Test L disease control rating (Plasmopara viticola) [%] | Test B disease control rating [1] [%] | Test I disease control rating [2] [%] | Test M disease control rating (Pythium aphanidermatum) [%] | Test E disease control rating (Fusarium graminearum) [%] | Test A disease control rating [3] [%] | Test J disease control rating (Rhizoctonia oryzae) [%] | Test C disease control rating (Septoria nodorum) [%]
1 | COCC(C)Nc1nccc(-c2ccnc(Nc3cccc([N+](=O)[O-])c3)c2)n1 (centres unmarked) [Compound 44] | 0 | 0 | 0 | 89 | 40 | 0 | 99 | 0 | 0 | 98
2 | COCC(C)Nc1nccc(-c2ccnc(Nc3ccc(F)cc3F)c2)n1 (centres unmarked) [Compound 47] | 0 | 0 | 0 | 85 | 40 | 0 | 92 | 0 | 0 | 0
3 | COCC(C)Nc1nccc(-c2ccnc(Nc3cccc(C)c3)c2)n1 (centres unmarked) [Compound 51] | 99 | 0 | 0 | 99 | 92 | 0 | 48 | 88 | 0 | 98
4 | COCC(C)Nc1nccc(-c2ccnc(Nc3c(F)cccc3F)c2)n1 (centres unmarked) [Compound 49] | 90 | 0 | 0 | 99 | 67 | 0 | 81 | 86 | 0 | 92
5 | CC(C)(C)Nc1nccc(-c2ccnc(Nc3cccc(F)c3)c2)n1 [Compound 45] | 20 | 0 | 0 | 79 | 8 | 0 | 90 | 77 | 0 | 98
